Blank lines part the entries; values can stand above or below the compound they belong to.
Legend:
Trypsin = Trypsin (Homo sapiens, UniProt P07477+P07478+P35030); test: Inhibition of trypsin (unknown origin) using Chromozyme-TRY substrate incubated for 3 mins by spectrophotometry; assay type: protein assay
Oryctolagus cuniculus [1] = species: Oryctolagus cuniculus; test: Antithrombotic activity in rabbit model of venous thrombosis; assay type: functional
Oryctolagus cuniculus [2] = species: Oryctolagus cuniculus; test: Antithrombotic activity in rabbit model of arteriovenous-shunt thrombosis; assay type: functional
Tryptase = Tryptase (Homo sapiens, UniProt Q9BZJ3+Q15661+Q9NRR2); test: Inhibition of human lung tryptase using Z-glypro-arg-AMC incubated for 3 mins by spectrophotometry; assay type: protein assay
Oryctolagus cuniculus [3] = species: Oryctolagus cuniculus; test: Antithrombotic activity in rabbit model of electrolytic-mediated carotid arterial thrombosis; assay type: functional
Coagulation factor XI [4] = biological target: T1, Coagulation factor XI (Homo sapiens, UniProt P03951); test: Inhibition of human factor 11a assessed as reduction in para-nitroanilide releasee using pyroGlu-Pro-Arg-pNA.HCl substrate by chromogenic assay
Coagulation factor XI [5] = biological target: T1, Coagulation factor XI; test: Inhibition of human factor 11a incubated for 60 mins by Cheng-Prusoff equation analysis
[6] = Terminal half life in healthy human following administration of 2 hrs and 5 day continuous iv infusion; assay type: ADME, organism-based; conditions: in vivo, read-out: beta t1/2

T1 sequence (P03951 19-387 limits assumed): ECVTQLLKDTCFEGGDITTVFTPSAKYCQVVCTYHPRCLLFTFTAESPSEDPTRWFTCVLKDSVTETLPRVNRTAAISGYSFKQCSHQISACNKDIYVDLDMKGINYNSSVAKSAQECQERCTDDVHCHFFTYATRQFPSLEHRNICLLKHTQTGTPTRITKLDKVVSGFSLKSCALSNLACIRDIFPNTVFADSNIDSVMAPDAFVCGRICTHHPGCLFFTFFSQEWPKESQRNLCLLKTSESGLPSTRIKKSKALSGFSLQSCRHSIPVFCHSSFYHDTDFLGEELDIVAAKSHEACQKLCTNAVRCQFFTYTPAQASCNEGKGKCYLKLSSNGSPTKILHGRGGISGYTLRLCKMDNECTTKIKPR
T1 sequence (P03951 388-625 limits assumed): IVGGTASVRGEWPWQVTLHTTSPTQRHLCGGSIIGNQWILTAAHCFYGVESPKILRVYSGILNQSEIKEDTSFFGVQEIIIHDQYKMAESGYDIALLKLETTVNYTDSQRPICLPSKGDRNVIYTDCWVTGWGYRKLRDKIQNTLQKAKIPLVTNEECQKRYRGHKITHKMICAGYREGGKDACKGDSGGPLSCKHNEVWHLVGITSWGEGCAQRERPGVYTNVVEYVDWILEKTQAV

IC50 (Trypsin): 0.05 µM
IC50 (Tryptase): 0.005 µM
Structure (SMILES): CC(C)(C)NC(=O)N1CCN(C(=O)N2C(=O)[C@H](CCCN=C(N)N)[C@H]2C(=O)O)CC1
ED50 (Oryctolagus cuniculus [1]): 0.7 mg/kg/h
ED50 (Oryctolagus cuniculus [2]): 0.4 mg/kg/h
ED50 (Oryctolagus cuniculus [3]): 1.5 mg/kg/h

Kd (Coagulation factor XI [4]): 1400 µM
Structure (SMILES): CNC(=O)[C@H](Cc1ccccc1)NC(=O)c1ccc2[nH]c(=O)cc(O)c2c1

Ki (Coagulation factor XI [5]): 0.0003 µM
Structure (SMILES): COC(=O)Nc1ccc2c(c1)NC(=O)CCCC[C@H](NC(=O)[C@H]1CC[C@H](CN)CC1)c1nc-2c[nH]1

half-life [6]: 6 to 9 h
Structure (SMILES): CN1CCN(c2cccc3c2CCN(C(=O)/C=C/c2c(-n4cnnn4)ccc(Cl)c2F)[C@@H]3C(=O)Nc2ccc(C(=O)O)cc2)C(=O)C1 [BMS-962212]

Reference: ChEMBL document CHEMBL4196099, “Factor XIa Inhibitors as New Anticoagulants” (J Med Chem, 2018)
